Source: patent publication US4959367A, “4-oxo-1,2,3-benzotriazines” (Beecham Group P.L.C., priority 1987, dated 1990)

Tested on: von Bezold-Jarisch reflex evoked by 5-HT
Test: Antagonism of the von Bezold-Jarisch reflex evoked by 5-HT in the anaesthetised rat
Assay type: in vivo
Details: male rats, urethane anaesthesia, submaximal 5-HT (usually 6 μg/kg) i.v., heart rate changes; for ED50: Rattus norvegicus, iv, read-out: ED50 (required to reduce the 5HT-evoked response to 50% of the control response)
Experimental: Antagonism of the von Bezold-Jarisch reflex
The compounds were evaluated for antagonism of the von Bezold-Jarisch reflex evoked by 5-HT in the anaesthetised rat according to the following method:
Male rats, 250-350 g, were anaesthetised with urethane (1.25 g/kg intraperitoneally) and blood pressure and heart rate recorded as described by Fozard J.R. et al., J. Cardiovasc. Pharmacol. 2, 229-245 (1980). A submaximal dose of 5-HT (usually 6 μg/kg) was given repeatedly by the intravenous route and changes in heart rate quantified. Compounds were given intravenously and the concentration required to reduce the 5HT-evoked response to 50% of the control response (ED50) was then determined.

CN1[C@@H]2CC[C@H]1C[C@@H](n1nnc3ccc(Cl)cc3c1=O)C2 [Compound E1, (endo)-3-(8-Methyl-8-azabicyclo[3.2.1]oct-3-yl)-6-chloro-3,4-dihydro-4-oxo-1,2,3-benzotriazine]
ED50: 0.012 mg/kg

CN1[C@@H]2CC[C@H]1C[C@@H](n1nnc3cc([N+](=O)[O-])c(Cl)cc3c1=O)C2 [Compound E3, (endo)-3-(8-Methyl-8-azabicyclo[3.2.1]oct-3-yl)-6-chloro-7-nitro-3,4-dihydro-4-oxo-benzotriazine]
ED50: 0.013 mg/kg

CN1[C@@H]2CC[C@H]1C[C@@H](n1nnc3cc(N)c(Cl)cc3c1=O)C2 [Compound E4, (endo)-3-(8-Methyl-8-azabicyclo[3.2.1]oct-3-yl)-7-amino-6-chloro-3,4-dihydro-4-oxo-benzotriazine]
ED50: 0.00017 mg/kg

CN1CC2CCC1CC2n1nnc2cc(N)c(Cl)cc2c1=O (stereo not drawn) [Compound E8, (5β)-3-(2-Methyl-2-azabicyclo[2.2.2]oct-5-yl)-7-amino-6-chloro-3,4-dihydro-4-oxobenzotriazine]
ED50 (required to reduce the 5HT-evoked response to 50% of the control response) (i.v.): 0.006 mg/kg
